{"source": "patent US6033823A", "about": "“Mutated penicillin G acylase genes” (priority 1994, dated 2000)", "key": {"[1]": {"target": "T1, Alcaligenes faecalis Penicillin G acylase, wild type (α subunit SEQ ID NO:27, β subunit SEQ ID NO:32) (Alcaligenes faecalis, UniProt O34142)", "T1 construct": "alpha 202 aa, beta 551 aa; likely recombinant, E. coli host", "T1 sequence (O34142 27-228)": "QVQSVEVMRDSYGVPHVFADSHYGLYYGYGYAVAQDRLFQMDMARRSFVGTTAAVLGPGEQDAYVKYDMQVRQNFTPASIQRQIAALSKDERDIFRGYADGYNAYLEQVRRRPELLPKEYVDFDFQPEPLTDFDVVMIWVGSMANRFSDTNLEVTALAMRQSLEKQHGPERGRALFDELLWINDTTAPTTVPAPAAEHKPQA", "T1 sequence (O34142 266-816)": "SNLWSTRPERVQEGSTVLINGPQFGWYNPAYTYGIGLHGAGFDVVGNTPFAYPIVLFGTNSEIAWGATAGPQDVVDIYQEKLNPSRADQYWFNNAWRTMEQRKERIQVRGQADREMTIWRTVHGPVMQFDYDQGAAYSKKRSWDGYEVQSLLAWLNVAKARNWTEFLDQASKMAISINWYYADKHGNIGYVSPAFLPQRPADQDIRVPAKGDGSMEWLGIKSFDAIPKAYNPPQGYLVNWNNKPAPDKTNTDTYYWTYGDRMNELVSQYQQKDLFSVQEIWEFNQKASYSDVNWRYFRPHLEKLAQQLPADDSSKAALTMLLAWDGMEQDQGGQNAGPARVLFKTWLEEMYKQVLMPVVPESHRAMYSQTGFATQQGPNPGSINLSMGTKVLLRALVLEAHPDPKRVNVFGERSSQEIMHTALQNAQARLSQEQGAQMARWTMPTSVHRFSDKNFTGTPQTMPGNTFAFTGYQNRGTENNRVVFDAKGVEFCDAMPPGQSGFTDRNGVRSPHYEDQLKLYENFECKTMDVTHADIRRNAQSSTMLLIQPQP", "assay": "Deacylation kinetics and phenylacetic acid product inhibition, wild type PenG acylase", "format": "biochemical", "conditions": "wt AF; from progress curves of NIPAB deacylation, 25° C., 0.1 M NaH2PO4.H2O buffer pH 7.5; read-out: Ki Phenylacetic acid (inhibition constant, dissociation constant)", "method": "(§1) In order to determine enzymatic activity the acylases were incubated with substrate at room temperature in buffered solution. In case β-lactamase impurity was expected to be present in the enzyme preparations, 1.0 mM -lactamase inhibitor 6-bromo-penicillanic acid was added to the assay. The reactions were stopped by adding an excess PMSF. For some mutants which were less sensitive to PMSF inhibition, the reactions were stopped by adding 0.5 M HCl or 0.5 M acetic acid until the pH was between 3 and 4. When reactions were subsequently analysed by HPLC, the reactions were stopped by dilution with the correponding elution solvent (see table 1). […]\n(§2) The composition of the reaction mixtures was determined by high-performanceliquid chromatography (HPLC)(table 1). Concentrations were determined by using standards of known concentration.\n(§3) In a continuous assay Penicillin G acylase was assayed spectro-fotometrically with the chromogenic substrate NIPAB [6-nitro-3-phenylacetamido-benzoic acid]. The liberation of 3-amino-6-nitrobenzoic acid was monitored by measuring the extinction at 405 nm in a Kontron 610 kinetic spectrofotometer. […]\n(§4) Initial rate measurements were performed with excess substrate over the enzyme. Catalytic parameters were derived from least-squares fitting of the measured initial rates plotted for various substrate concentrations according to the Michaelis-Menten equation. […]"}, "[2]": {"target": "T2, Alcaligenes faecalis Penicillin G acylase mutant A:M143V (Alcaligenes faecalis, UniProt O34142, M169V)", "T2 construct": "alpha 202 aa, beta 551 aa; recombinant, E. coli host", "T2 sequence (O34142 27-228 M169V)": "T1 sequence (O34142 27-228) with M143V", "T2 sequence (O34142 266-816)": "T1 sequence (O34142 266-816)", "assay": "Deacylation kinetics and phenylacetic acid product inhibition, mutant A:M143V", "format": "biochemical", "conditions": "from progress curves of NIPAB deacylation, 25° C., 0.1 M NaH2PO4.H2O buffer pH 7.5, read-out: Ki Phenylacetic acid (inhibition constant, dissociation constant)", "method": "as §1, §2, §3, §4"}}, "note": "Substitutions are numbered along the chain they refer to."}
{"smiles": "O=C(O)Cc1ccccc1", "note": "[phenylacetic acid]", "values": [{"measurement": "Ki", "setting": "[1]", "value": 11, "unit": "µM"}, {"measurement": "Ki", "setting": "[2]", "value": 74, "unit": "µM"}]}
